The text below walks through data of patent US20100311691A1, “COMPOSITIONS OF S-ALKYLISOTHIOURONIUM DERIVATIVES FOR TREATING UPPER RESPIRATORY CONGESTION” (priority 2007, published 2010).

In series [1] the test system is nasal congestion, rhino-sinusitis. The experiment in a line: Example 4: case report Patient A (rhino-sinusitis), nasal drops. The series is classed as in vivo. Particulars: for repeated administrations needed: nasal drops. Here is the method: Patient A was admitted with a diagnosis of rhino-sinusitis. […] Clinical examination indicated hyperemia of the nasal mucosa, rhinorrhea, nasal obstruction with narrowing of the lower and medium nasal cornets. The patient was treated with, antibacterial medication, and the sinuses were drained by the introduction of antiseptics. In addition, 2-3 nasal drops of S-ethylisothiouronium diethylphosphate 1% were administered. The patient was treated during 3 days. As a result of the treatment with S-ethylisothiouronium diethylphosphate, an amelioration of the clinical symptoms was achieved 1-2 days earlier than that achieved by the treatment with S-ethylisothiouronium bromide (designated Olysin). Also, the repeated administration of S-ethylisothiouronium diethylphosphate was reduced to 2-3 times per day, and not 4-5 times as was necessary when administering Olysin.

The subject of another series is nasal congestion. The settings on record: unpublished studies; cited from earlier work.
Series [2] deals with nasal congestion, rhinitis and acute sinusitis. The experiment in a line: Example 4: case report Patient B (rhinitis and acute sinusitis), nasal drops. The series is classed as in vivo. On the procedure: Patient B was admitted with a diagnosis of rhinitis and acute sinusitis. The patient complained of headaches, dizziness, and common cold. […] The radiological examination confirmed acute sinusitis. The patient was treated by puncture of the sinuses with the introduction of antiseptics, Cefazoline 1.0 administered intramuscularly 2 times per day, Loratidin tablets 10 mg and, locally, nasal drops of S-ethylisothiouronium diethylphosphate 2% were used 3-4 times per day. The treatment with S-ethylisothiouronium diethylphosphate led to an amelioration of the clinical symptoms and hyperemia of the nasal mucosa 1-2 days earlier than that obtained by the treatment with Olysin.

In series [3] the test system is upper respiratory tract and oral pharyngeal congestion. The experiment in a line: Summary comparison of diethylphosphate and bromide in upper respiratory tract and oral pharyngeal congestion. The settings on record: summary statement. The series is classed as in vivo, subjects.

For `Br.CCSC(=N)N` [Olysin, S-ethylisothiouronium bromide], the repeated administrations needed in series [1] is 4-5 times per day. In the series on nasal congestion, the nasal decongestion result is “moderate and short-term nasal decongestions”; the side effects entry was “harmful side effects”.
For S-ethylisothiouronium diethylphosphate, the “adverse effects / tachyphylaxis” value in series [1] (1% nasal drops) is “No adverse effects or tachyphylaxis”. Also, the “amelioration of clinical symptoms earlier than with S-ethylisothiouronium bromide (Olysin)” value in series [1] (2-3 nasal drops of 1%, treated during 3 days, with antibacterial medication and sinus drainage) was in the range of 1 to 2 days. Besides, the repeated administrations needed in series [1] is recorded as 2-3 times per day. For the same molecule, the adverse effects entry in series [2] (2% nasal drops) is “No adverse effects”. Moreover, the “amelioration of clinical symptoms and hyperemia of the nasal mucosa earlier than with Olysin” value in series [2] (2% nasal drops 3-4 times per day, with Cefazoline, Loratidin, antiseptics) fell in the range of 1 to 2 days. In series [3], the “efficiency in alleviating congestion and symptoms, relative to S-ethylisothiouronium bromide” value is recorded as “more efficient than S-ethylisothiouronium bromide”; the side effects entry is on record as “little or no side effects”.
